How the values were obtained:
PLC/PRF/5 (PLC5) cells = test: Cell viability of liver cancer cells (Prestoblue), PLC5; format: cell-based; details: PLC5 cells, 48 hr
Protocol: Hepatoma cell Huh-7 was obtained from Health Science Research Resources Bank (HSRRB, Osaka. Japan; JCRB0403); Hepatoma cell PLC/PRF/5 (PLC5), Sk-Hep-1 and HCC1806 were obtained from the American Type Culture Collection (ATCC, Manassas, Va.). All cell lines are cultured immediately and frozen, so the frozen cells can be thawed every 3 months to allow experiments are conducted with the same batch of cells.
Analysis is performed using a commercial kit Prestoblue assay produced by Thermo Fisher Scientific. Three liver cancer cell lines PLC/PRF/5, SK-hep1, and Huh-7 are cultured with compound SCT-1015 for 48 hours and 72 hours, respectively. […] The results support that the compound of the present invention can activate AMPK to inhibit the proliferation of liver cancer cells.

AMPK T172 = test: Detection of AMPK phosphorylation by ELISA assay in PLC5 cells; format: cell-based; details: PLC5 cultured with 10 μM compound for 24 hours, compared to control group
Protocol: In this analysis, the commercial kit AMPK […] Phospho-ELISA Kit (KHO0651) produced by ThermoFisher Science is utilized. The hepatoma cell PLC5 is cultured with 10 μM of the compound for 24 hours, and the analysis is performed according to the manual, and the absorbance was detected at a wavelength of 450 nm.

[1] = Treatment of diet-induced obesity (DIO) mice, body weight; format: in vivo; details: compared to the control group of mice (FIG. 6)
From the text: The male mice C57BL/6 were purchased from the National Laboratory Animal Center (NLAC, Taipei, Taiwan) and fed high-fat-die for 4 weeks to establish the diet-induced obesity (DIO) mouse model for subsequent experiments

| IC50 (PLC/PRF/5 (PLC5) cells) | SMILES | AMPK T172 activity (AMPK T172) | body weight lost [1] |
| --- | --- | --- | --- |
| > 20 µM | Cc1ccc(C(=O)Nc2ccc(Cl)c(C(F)(F)F)c2)cc1Nc1nccc(-c2ccc(C#N)cc2)n1 [SCT-1001, N-(4-chloro-3-(trifluoromethyl)phenyl)-(3)-((4-(4-cyanophenyl)pyrimidin-2-yl)amino)-4-methylbenzamide] | – | – |
| > 20 µM | Cc1ccc(C(=O)Nc2ccc(Cl)c(C(F)(F)F)c2)cc1Nc1nccc(-c2cccc(C#N)c2)n1 [SCT-1002, N-(4-chloro-3-(trifluoromethyl)phenyl)-3-((4-(3-cyanophenyl)pyrimidin-2-yl)amino)-4-methylbenzamide] | 1.2 fold | – |
| > 20 µM | Cc1ccc(C(=O)Nc2ccc(Cl)c(C(F)(F)F)c2)cc1Nc1nccc(-c2ccc[nH]2)n1 [SCT-1003, 3-((4-(1H-pyrrol-2-yl)pyrimidin-2-yl)amino)-N-(4-chloro-3-(trifluoromethyl)phenyl)-4-methylbenzamide] | 1.1 fold | – |
| > 20 µM | Cc1ccc(C(=O)Nc2ccc(Cl)c(C(F)(F)F)c2)cc1Nc1nccc(-c2ccccc2)n1 [SCT-1004, N-(4-chloro-3-(trifluoromethyl)phenyl)-4-methyl-3-((4-phenylpyrimidin-2-yl)amino)benzamide] | 1.1 fold | – |
| > 20 µM | COc1ccc2ccccc2c1-c1ccnc(Nc2cc(C(=O)Nc3ccc(Cl)c(C(F)(F)F)c3)ccc2C)n1 [SCT-1005, N-(4-chloro-3-(trifluoromethyl)phenyl)-3-((4-(2-methoxynaphthalen-1-yl)pyrimidin-2-yl)amino)-4-methylbenzamide] | 1.0 fold | – |
| > 20 µM | Cc1ccc(C(=O)Nc2ccc(Cl)c(C(F)(F)F)c2)cc1Nc1cc(-c2ccccc2)ncn1 [SCT-1006, N-(4-chloro-3-(trifluoromethyl)phenyl)-4-methyl-3-((6-phenylpyrimidin-4-yl)amino)benzamide] | 1.3 fold | – |
| > 20 µM | Cc1ccc(C(=O)Nc2ccc(Cl)c(C(F)(F)F)c2)cc1Nc1nccc(-c2cccs2)n1 [SCT-1007, N-(4-chloro-3-(trifluoromethyl)phenyl)-4-methyl-3-((4-(thiophen-2-yl)pyrimidin-2-yl)amino)benzamide] | 1.1 fold | – |
| > 20 µM | CSc1cccc(-c2ccnc(Nc3cc(C(=O)Nc4ccc(Cl)c(C(F)(F)F)c4)ccc3C)n2)c1 [SCT-1008, N-(4-chloro-3-(trifluoromethyl)phenyl)-4-methyl-3-((4-(3-(methylthio)phenyl)pyrimidin-2-yl)amino)benzamide] | 1.0 fold | – |
| > 20 µM | Cc1cc(-c2ccnc(Nc3cc(C(=O)Nc4ccc(Cl)c(C(F)(F)F)c4)ccc3C)n2)ccc1F [SCT-1009, N-(4-chloro-3-(trifluoromethyl)phenyl)-3-((4-(4-fluoro-3-methylphenyl)pyrimidin-2-yl)amino)-4-methylbenzamide] | 1.1 fold | – |
| > 20 µM | Cc1ccc(C(=O)Nc2ccc(Cl)c(C(F)(F)F)c2)cc1Nc1nccc(-c2ccc(OC(F)(F)F)cc2)n1 [SCT-1010, N-(4-chloro-3-(trifluoromethyl)phenyl)-4-methyl-3-((4-(4-(trifluoromethoxy)phenyl)pyrimidin-2-yl)amino)benzamide] | 1.0 fold | – |
| > 20 µM | Cc1ccc(C(=O)Nc2ccc(Cl)c(C(F)(F)F)c2)cc1Nc1nccc(-c2ccc(C(F)(F)F)cc2)n1 [SCT-1011, N-(4-chloro-3-(trifluoromethyl)phenyl)-4-methyl-3-((4-(4-(trifluoromethyl)phenyl)pyrimidin-2-yl)amino)benzamide] | 1.1 fold | – |
| > 20 µM | Cc1ccc(C(=O)Nc2ccc(Cl)c(C(F)(F)F)c2)cc1Nc1nccc(-c2cc(Cl)cc(Cl)c2)n1 [SCT-1012, N-(4-chloro-3-(trifluoromethyl)phenyl)-3-((4-(3,5-dichlorophenyl)pyrimidin-2-yl)amino)-4-methylbenzamide] | 1.0 fold | – |
| > 20 µM | N#Cc1ccc(-c2ccnc(Nc3cccc(NC(=O)Nc4ccc(Cl)c(C(F)(F)F)c4)c3)n2)cc1 [SCT-1013, 1-(4-chloro-3-(trifluoromethyl)phenyl)-3-(3-((4-(4-cyanophenyl)pyrimidin-2-yl)amino)phenyl)urea] | 1.0 fold | – |
| > 20 µM | N#Cc1cccc(-c2ccnc(Nc3cccc(NC(=O)Nc4ccc(Cl)c(C(F)(F)F)c4)c3)n2)c1 [SCT-1014] | 1.0 fold | – |
| > 20 µM | O=C(Nc1cccc(Nc2nccc(-c3ccccc3)n2)c1)Nc1ccc(Cl)c(C(F)(F)F)c1 [SCT-1016, 1-(4-chloro-3-(trifluoromethyl)phenyl)-(3-((4-phenylpyrimidin-2-yl)amino)phenyl)urea] | 1.0 fold | – |
| > 20 µM | O=C(Nc1cccc(Nc2nccc(-c3cccs3)n2)c1)Nc1ccc(Cl)c(C(F)(F)F)c1 [SCT-1017, 1-(4-chloro-3-(trifluoromethyl)phenyl)-3-(3-((4-(thiophen-2-yl)pyrimidin-2-yl)amino)phenyl)urea] | 1.1 fold | – |
| > 20 µM | CSc1cccc(-c2ccnc(Nc3cccc(NC(=O)Nc4ccc(Cl)c(C(F)(F)F)c4)c3)n2)c1 [SCT-1018, 1-(4-chloro-3-(trifluoromethyl)phenyl)-3-(3-((4-(3-(methylthio)phenyl)pyrimidin-2-yl)amino)phenyl)urea] | 1.1 fold | – |
| > 20 µM | Cc1cc(-c2ccnc(Nc3cccc(NC(=O)Nc4ccc(Cl)c(C(F)(F)F)c4)c3)n2)ccc1F [SCT-1019, 1-(4-chloro-3-(trifluoromethyl)phenyl)-3-(3-((4-(4-fluoro-3-methylphenyl)pyrimidin-2-yl)amino)phenyl)urea] | 1.0 fold | – |
| > 20 µM | O=C(Nc1cccc(Nc2nccc(-c3ccc(OC(F)(F)F)cc3)n2)c1)Nc1ccc(Cl)c(C(F)(F)F)c1 [SCT-1020, 1-(4-chloro-3-(trifluoromethyl)phenyl)-3-(3-((4-(4-(trifluoromethoxy)phenyl)pyrimidin-2-yl)amino)phenyl)urea] | 1.3 fold | – |
| > 20 µM | O=C(Nc1cccc(Nc2nccc(-c3ccc(C(F)(F)F)cc3)n2)c1)Nc1ccc(Cl)c(C(F)(F)F)c1 [SCT-1021, 1-(4-chloro-3-(trifluoromethyl)phenyl)-3-(3-((4-(4-(trifluoromethyl)phenyl)pyrimidin-2-yl)amino)phenyl)urea] | 1.2 fold | – |
| > 20 µM | O=C(Nc1cccc(Nc2cc(-c3ccccc3)ncn2)c1)Nc1ccc(Cl)c(C(F)(F)F)c1 [SCT-1022] | 1.4 fold | – |
| > 20 µM | O=C(Nc1cccc(Nc2nccc(-c3cc(Cl)cc(Cl)c3)n2)c1)Nc1ccc(Cl)c(C(F)(F)F)c1 [SCT-1023, 1-(4-chloro-3-(trifluoromethyl)phenyl)-3-(3-((4-(3,5-dichlorophenyl)pyrimidin-2-yl)amino)phenyl)urea] | – | – |
| > 20 µM | CCc1cccc(NC(=O)Nc2cccc(Nc3nccc(-c4ccc[nH]4)n3)c2)c1 [SCT-1033] | – | – |
| > 20 µM | Cc1ccc(F)c(NC(=O)Nc2cccc(Nc3nccc(-c4ccc[nH]4)n3)c2)c1 [SCT-1034] | – | – |
| > 20 µM | COC(=O)c1cccc(NC(=O)Nc2cccc(Nc3nccc(-c4ccc[nH]4)n3)c2)c1 [SCT-1037] | – | – |
| > 20 µM | O=C(Nc1cccc(Nc2nccc(-c3ccc[nH]3)n2)c1)Nc1cccc(C(=O)O)c1 [SCT-1038, 3-(3-(3-((4-(1H-pyrrol-2-yl)pyrimidin-2-yl)amino)phenyl)ureido)benzoic acid] | – | – |
| > 20 µM | COC(=O)c1cc(NC(=O)Nc2cccc(Nc3nccc(-c4ccc[nH]4)n3)c2)ccc1C [SCT-1039, Methyl 5-(3-(3-((4-(1H-pyrrol-2-yl)pyrimidin-2-yl)amino)phenyl)ureido)-2-methylbenzoate] | – | – |
| > 20 µM | COC(=O)c1cc(NC(=O)Nc2cccc(Nc3nccc(-c4ccc[nH]4)n3)c2)ccc1Cl [SCT-1041, Methyl 5-(3-(3-((4-(1H-pyrrol-2-yl)pyrimidin-2-yl)amino)phenyl)ureido)-2-chlorobenzoate] | – | – |
| – | CCCCCCCCCCC[C@@H](C[C@@H]1OC(=O)[C@H]1CCCCCC)OC(=O)[C@H](CC(C)C)NC=O [orlistat, reference compound] | – | similar |
